Measured values reported in patent US20160129034A1, “COMBINATION OF RO5503781, CAPECITABINE AND OXALIPLANTIN FOR CANCER THERAPY” (HOFFMANN-LA ROCHE INC., priority 2013, published 2016).

Test system: LoVo cell line
Assay: LoVo colorectal xenograft in mice: tumor growth inhibition and survival
Type: in vivo
Conditions: for % Inhibition (EOS) / % T/C (EOS): end of study; for Mean Tumor Volume: in mm³ (unit assumed)
Method: The LoVo cell line was selected for implantation in mice as it is has activation of the p53-MDM2 pathway but lacks MDM2 amplification or overexpression, which therefore is felt to be more reflective of clinical reality of the colorectal cancer patient population of interest.
Compound A and the capecitabine/oxaliplatin formulations were as follows. If not explicitly indicated otherwise, the amounts provided below are concentrations [mg/ml]. Compound A is used at concentrations of 10 mg/ml and 12.5 mg/ml. Capecitabine is used at concentrations of 12.5 mg/ml, 25 mg/ml and 50 mg/ml. Oxaliplatin is dosed at 5 mg/kg. The vehicle solutions for compound A and capecitabine are as follows:
The following treatment groups were used in the study • 1. Vehicle Control qd×5 po+qd×14 po • 2. Compound A 80 mg/kg qd×5 po • 3. Compound A 100 mg/kg qweekly×3 po • 4. Capecitabine 200 mg/kg qd×14 po • 5. Oxaliplatin 5 mg/kg qweekly ip×2 • 6. Capecitabine 200 mg/kg qd×14po+Oxaliplatin 5 mg/kg qweekly ip×2 • 7. Compound A 80 mg/kg qd×5+Capecitabine 200 mg/kg qd×14 • 8. Compound A 100 mg/kg qweekly×3+Capecitabine 200 mg/kg qd×14 • 9. Compound A 80 mg/kg qd×5+Capecitabine 200 mg/kg qd×14+Oxaliplatin 5 mg/kg qweekly ip×2 • 10. Compound A 100 mg/kg qweekly×3+Capecitabine 200 mg/kg qd×14+Oxaliplatin 5 mg/kg qweekly ip×2

[1] = Oxaliplatin 5 mg/kg qweeklyx2 ip
[2] = Capecitabine 200 mg/kg qdx14 po

Q: Which results are given for `COc1cc(C(=O)O)ccc1NC(=O)[C@@H]1N[C@@H](CC(C)(C)C)[C@](C#N)(c2ccc(Cl)cc2F)[C@H]1c1cccc(Cl)c1F` [Cpd. A, 4-{[(2R,3S,4R,5S)-4-(4-Chloro-2-fluoro-phenyl)-3-(3-chloro-2-fluoro-phenyl)-4-cyano-5-(2,2-dimethyl-propyl)-pyrrolidine-2-carbonyl]-amino}-3-methoxy-benzoic acid]?
A: % Increased Life Span (Cpd A 80 mg/kg qdx5 po): 21%; % Inhibition (EOS) (Cpd A 80 mg/kg qdx5 po): 64%; % T/C (EOS) (Cpd A 80 mg/kg qdx5 po): 38%; Mean Tumor Volume (Cpd A 80 mg/kg qdx5 po): 130.73; % Increased Life Span (Cpd A 100 mg/kg qwklyx3 po): 21%; % Inhibition (EOS) (Cpd A 100 mg/kg qwklyx3 po): 60%; % T/C (EOS) (Cpd A 100 mg/kg qwklyx3 po): 40%; Mean Tumor Volume (Cpd A 100 mg/kg qwklyx3 po): 130.23

Q: What does the source list for `O=C(O)C(=O)O.[NH-][C@@H]1CCCC[C@H]1[NH-].[Pt+2]` [Oxaliplatin]?
A: % Increased Life Span [1]: 0%; % Inhibition (EOS) [1]: 23%; % T/C (EOS) [1]: 77%; Mean Tumor Volume [1]: 130.60

Q: Which “% Increased Life Span” value [2] does the source give for `CCCCCOC(=O)Nc1nc(=O)n([C@@H]2O[C@H](C)[C@@H](O)[C@H]2O)cc1F` [Capecitabine, 5′-deoxy-5-fluoro-N-[(pentyloxy)-carbonyl]-cytidine] here?
A: The value was 36%.

Q: And the “% Inhibition (EOS)” value [2]?
A: Its value is 75%.

Q: What about the “% T/C (EOS)” value [2] of the same molecule?
A: The value was 25%.

Q: What about the “Mean Tumor Volume” value [2] of the same molecule?
A: Its value is 129.07.
